Results as given in patent publication US20040235920A1, “Novel use of substituted aminomethyl chromans for the treatment of movement disorders and of adverse effects induced by drugs administered to treat extrapyramidal movement disorders” (priority 2001, published 2004).

Experiments:
[1] = system: Parkinsonian cynomolgus monkey; test: MPTP Parkinsonian cynomolgus monkey chronically treated with l-dopa (Abnormal Involuntary Movement Scale, rating for psychotic states); assay type: in vivo; conditions: MPTP monkeys, long-term l-dopa
Method: Treatment of adverse effects of conventional anti-Parkinsonian drugs as defined above are determined in a modification of the animal model of the Parkinsonian cynomolgus monkey according to P. J. Blanchet et al., Exp. Neurology 1998; 153: 214-222. Monkeys render parkinsonian by repeated injections of 1-methyl-4-phenyl-1,2,3,6-tetrahydropyridine (MPTP). The Parkinsonian monkeys are chronically treated with the standard l-dopa therapy according to P. J. Blanchet et al., Mov. Disord., 1998; 13: 798-802. Longterm treatment with l-dopa induces extrapyramidal motor side effects and psychotic states which are both qualitatively and quantitatively, assessed by the Abnormal Involuntary Movement Scale (P. J. Blanchet et al., Mov. Disord. 1998; 13: 798-802) for different body parts (face, neck, trunk, each limb) and by rating for psychotic states by observing the monkey's attention, reactivity and mobility. (−)-(R)-2-{4-[[3,4-dihydro-2H-benzopyran-2-yl)-methyl]amino]butyl}-1,2-benzoisothiazol-3-(2H)-on-1,1-dioxide reduced overall choreiform dyskinesias and dystonic dyskinesias as well as psychotic states.

[2] = system: rats challenged with haloperidol; test: Neuroleptics-induced muscle rigidity in rats (haloperidol); assay type: in vivo, rat; conditions: resistance to passive flexion and extension of the hind limb
Source text: A typical animal model is neuroleptics-induced muscle rigidity in rats according to S. Wolfarth et al., Arch. Pharmacol. 1992; 345: 209-212. Rats are challenged with the conventional neuroleptic drug haloperidol which enhances muscle tone. Muscle tone is electromechanically measured as the resistence to passive flexion and extension of the hind limb. (−)-(R)-2-{4-[[3,4-dihydro-2H-benzopyran-2-yl)-methyl]amino]butyl}-1,2-benzoisothiazol-3-(2H)-on-1,1-dioxide or a pharmaceutically acceptable salt thereof decreased the muscle tone enhanced by haloperidol.

[3] = system: oxotremorine-induced tremor; test: Oxotremorine-induced tremor (rating scale); assay type: in vivo
Method: A typical animal model for drug-induced tremors is the oxotremorine-induced tremor (e.g. H. Hallberg and O. Almgren, Acta Physiol. Scand., 1987; 129: 407-13; J. G. Clement and W. R. Dyck, J. Pharmacol. Meth., 1989; 22: 25-36). Oxotremorine induces tremor which is measured by a rating scale. (−)-(R)-2-{4-[[3,4-dihydro-2H-benzopyran-2-yl)-methyl]amino]butyl}-1,2-benzoisothiazol-3-(2H)-on-1,1-dioxide or one of its pharmaceutically acceptable salt inhibit oxotremorine-induced tremors.

[4] = system: Pietrain pig; test: Campus Syndrome in the Pietrain pig, tremor; assay type: in vivo; conditions: when standing and during locomotion
Source text: Typical genetic models in mutant animals are the Campus Syndrome in the Pietrain pig according to A. Richter et al. (Exp. Neurology, 1995; 134: 205-213) or the Weaver mutant mouse according to J. R. Simon and B. Ghetti (Mol. Neurobiol., 1994; 9: 183-189). In the Campus Syndrome model, these mutant pigs show a high-frequency tremor when standing and during locomotion, but not while lying at rest. Assessment of tremor is made by accelerometric recording. In the Weaver mutant mouse, degenerative cerebellar atrophy is found in association with tremor, gait instability, and toppling over the sides after a few steps.

[5] = Abnormal Involuntary Movement Scale

O=C1c2ccccc2S(=O)(=O)N1CCCCNC[C@H]1CCc2ccccc2O1 [(−)-(R)-2-{4-[[3,4-dihydro-2H-benzopyran-2-yl)-methyl]amino]butyl}-1,2-benzoisothiazol-3-(2H)-on-1,1-dioxide]
dystonic dyskinesias [1, 5]: reduced
overall choreiform dyskinesias [1, 5]: reduced
psychotic states ([1]; rating of attention, reactivity and mobility): reduced
muscle tone enhanced by haloperidol [2]: decreased
oxotremorine-induced tremors [3]: inhibit
Campus Syndrome tremor [4]: reduced disabling tremor when standing and during locomotion
